Values after ≈ are worked out from the molar mass of the structure shown. Values joined by “and” are separate entries in the source; they are usually repeats but may differ in a detail not shown here. Identical values can stand only once.
Columns and labels:
[1] = molecular target: T1, BSA (Bos taurus, UniProt P02769); test: BSA fluorescence quenching titration (Stern-Volmer / Scatchard); type: binding, bovine; conditions: for Kbin: BSA binding constant from Scatchard equation; for n (number of binding sites): Scatchard plot log (I0 − I)/I vs. log [Q]; for KSV: Stern-Volmer constant; for Kq: quenching constant, Kq = Ksv/τ0, τ0 = 10 ns
Experimental: The excitation and emission wavelengths of BSA at 280 nm were monitored in protein binding studies using BSA ([…]) solution prepared in Tris-HCl buffer (pH 7.5), and the solution was stored in a dark place at 4 °C.
Interactions between the most common blood protein, serum albumin, and complexes have sparked a lot of interest recently because of their structural similarity to human serum albumin. To better understand the mechanism of interaction between BPA and its nickel(II) complex NiBPA with BSA, fluorescence quenching studies were carried out. BSA’s fluorescence is due to intrinsic protein characteristics, such as the presence of tryptophan and tyrosine residues. Variations in the emission spectra caused by protein conformational changes, subunit interaction, substrate binding, or denaturation are largely attributed to the tryptophan residue. As a result, BSA fluorescence behavior can provide valuable insight into protein structure, dynamics, and folding. Fluorescence titration experiments were performed at room temperature with BSA and different concentrations of BPA and NiBPA in the range 200–600 nm (λex. 280 nm). A slight red shift (40 percent, BPA; 65 percent, NiBPA; Figure 3) reduced the intensity of BSA fluorescence at 343 nm. The presence of the protein’s active site in a hydrophobic environment causes the redshift. […] The quenching mechanism can be set to either static or dynamic operation. Dynamic quenching occurs when the fluorophore and the quencher come into contact during the excited state’s transient existence, whereas static quenching is caused by the formation of a complex between the quencher and the fluorophore in the ground state. BSA (fluorophore) has a UV-vis absorption spectrum that can be used to investigate the type of quenching quickly and easily. […] The binding constants for BPA and NiBPA were calculated using Equation (1) and found to be 0.4 × 10^4 M^−1 and 0.82 × 10^4 M^−1, respectively (Table 1). […] Furthermore, the findings are in line with previous research on related compounds.
The Kq value is much higher than the 2 × 10^10 M^−1s^−1 maximum scatters collision quenching constant of quenchers with BSA (Kq = Ksv/τ0), where KSV is the Stern–Volmer constant and τ0 is the average lifetime of the BSA in the absence of the quencher (τ0 = 10 ns). This supports the idea of a static quenching mechanism. […] It is second order in [Q] and thus leads to upward curvy plots of I0/I versus [Q] at higher [Q].
The quenching constant (Kq) was calculated using the Stern–Volmer and Scatchard equation and plotted as I0/I vs. [Q] to better understand the quenching process (Figure 3). In addition, Scatchard Equation (2) was used to calculate the equilibrium binding constant:log[(I0 − I)/I] = log Kbin + n log [Q](2) where Kbin is the compound’s BSA binding constant and n is the number of binding sites. From the log (I0 − I)/I vs. log [Q] plot (Figure 5), the binding constant (Kbin) and the number of binding sites (n) have been calculated (Table 1). The estimated value of n (∼1) for BPA and NiBPA strongly supported the existence of a single binding site in BSA.

[2] = molecular target: T1, BSA; test: BSA UV-vis absorption titration (Benesi-Hildebrand binding constant); parameters: species or system bovine
Experimental: Interactions between the most common blood protein, serum albumin, and complexes have sparked a lot of interest recently because of their structural similarity to human serum albumin. To better understand the mechanism of interaction between BPA and its nickel(II) complex NiBPA with BSA, fluorescence quenching studies were carried out. BSA’s fluorescence is due to intrinsic protein characteristics, such as the presence of tryptophan and tyrosine residues. Variations in the emission spectra caused by protein conformational changes, subunit interaction, substrate binding, or denaturation are largely attributed to the tryptophan residue. As a result, BSA fluorescence behavior can provide valuable insight into protein structure, dynamics, and folding. Fluorescence titration experiments were performed at room temperature with BSA and different concentrations of BPA and NiBPA in the range 200–600 nm (λex. 280 nm). A slight red shift (40 percent, BPA; 65 percent, NiBPA; Figure 3) reduced the intensity of BSA fluorescence at 343 nm. The presence of the protein’s active site in a hydrophobic environment causes the redshift. […] The quenching mechanism can be set to either static or dynamic operation. […] The binding constants for BPA and NiBPA were calculated using Equation (1) and found to be 0.4 × 10^4 M^−1 and 0.82 × 10^4 M^−1, respectively (Table 1). […]

[3] = system: ct-DNA; test: ct-DNA electronic absorption titration; type: binding; conditions: phosphate buffer pH 7.2
Experimental: Electronic absorption measurements were performed with a constant concentration of ctDNA and increasing concentrations of BPA and NiBPA (Na-phosphate buffer solution, pH 7.2). […] Intrinsic fluorescence was measured with the ct-DNA solution at the excitation wavelength (ex, 330), and emission spectra were recorded at 550–700 nm after aliquot addition of BPA and NiBPA.
Absorption titration information was depicted in Figure 6 to understand the mode of interaction of complexes with ct-DNA. Increased addition of a solution of BPA to a solution of ct-DNA causes hyperchromic for the band at 264 nm with a blue shift of 5 nm (259 nm), as shown in the absorption titration spectrum (Figure 6). The band at 278 nm, on the other hand, was hypochromic with a small blue shift of 2 nm (276 nm). The presence of […] in the medium was indicated by the isosbestic point in the titration curve at 274 nm. […] The hydrogen bonds formed with the –OH and SH groups of BPA and NiBPA are caused by the presence of many accessible hydrogen binding sites in the DNA major and minor grooves. The binding constants for BPA (0.16 × 10^5 M^−1) and NiBPA (0.52 × 10^5 M^−1) are similar to those of well-known groove binding rather than classical intercalation, implying that NiBPA interacts with ct-DNA much more strongly than BPA under investigation.

[4] = molecular target: T1, BSA; test: Stopped-flow kinetics of BSA binding; parameters: species or system bovine; conditions: for ΔG1: ΔGbind = RT·ln(Kd); for K2 (2nd step): irreversible step for BPA
Experimental: (§1) The kinetics of protein and DNA binding was measured using an Applied KinetAsyst SF-61DX2 stopped-flow instrument. At 25 °C, equal volumes of compounds against protein and DNA solutions were rapidly mixed in the stopped-flow instrument. The binding reactions were studied using a 10-fold excess of the ligand BPA and NiBPA under pseudo-first-order conditions. For each experimental condition, all recorded rate constants were taken into account, from which the mean values of at least three independent kinetic runs were calculated.
(§2) Because many medicines with lower cellular toxicity have a slow DNA dissociation rate, several factors, such as the strength of binding and the drug’s affinity for DNA, as well as the kinetic stability of DNA-drug adducts, may contribute to antitumor effectiveness. The stopped-flow technique was used to study in-vitro protein/DNA binding to BPA and propose a mechanism in order to obtain such information. The kinetic traces were recorded at 265 nm within 100 s (BPA) and 5 s (NiBPA), respectively, to capture the interaction process with BSA. […] In the case of ct-DNA interaction, the kinetic traces were recorded at 290 nm, and both BPA and NiBPA followed a similar pattern since kinetic traces for BPA and NiBPA were collected within 100 s, covering the entire interaction process. […] Over the concentration range of BPA and NiBPA, the study of kinetic traces performed under pseudo-first-order conditions may be fitted to two kinetic phases (Figure 7) evaluated using the following Equation (3):(3) A=a1e^−kobs1t1+a2e^−kobs2t2+A0
(§3) The interaction process involves at least two steps, and the stopped-flow records the two kinetic phases as a fast binding (rate constant kobs1) followed by a slow first-order isomerization process (rate constant kobs2). […] Both kon and koff were used to calculate the equilibrium association constants Kaff [kon/koff M^−1] and the equilibrium dissociation constants Kd [koff/kon M].
The difference between the free energy, G, of BSA molecules alone in the solution and when bound together is related to the equilibrium dissociation constant, Kd1. Equation (4) gives the binding free energy change Gbind. (4) ΔGbind=RT·ln(Kd)

[5] = system: ct-DNA; test: Stopped-flow kinetics of ct-DNA binding; conditions: for Ka1 (k1/k−1) / Kd: 1st step; for Ka1 (k1/k−1) / Kd / K2 (2nd step) / Ka2 (k2/k−2) / k−2 / k1 (1st step, second-order association constant) / k−1 (1st step, first-order dissociation constant): 25 °C; for Kd: read-out: Kd1 (k−1/k1); for K2 (2nd step) / Ka2 (k2/k−2) / k−2: 2nd step
Experimental: as §1, §2
as §3, with “M]. […]” for “M].”

[6] = system: human liver cancer (HepG2) cell lines; test: MTT cytotoxicity assay, liver cancer cells; type: cell-based
Experimental: Methyl thiazolyl tetrazolium (MTT) colorimetry [47] was used to assess the cytotoxicity of BPA and one for human liver cancer (HepG2) cell lines. MTT can be converted into formazan by living cells with an active metabolism, but this ability is lost in dying cells. Therefore, in this study, the MTT assay was used to determine how many viable cells there were. Before the investigated compounds were added, cells were cultured in 96-well flat-bottomed microtiter plates at a density of 1 × 10^4 cells/well (100 l/well) for 70 to 80 percent confluent cultures, and the cultures were then incubated at 37 °C and 5 percent CO2 for 24 h. The compounds were used in a range of concentrations (31.2, 62.5, 125.0, 250.0, 500.0, and 1000.0 g/mL), and the cells were cultured for 24 h. Then, 10 µl of the 12 mM MTT stock solution (5 mg/mL MTT in sterile PBS) was added to each well at the conclusion of the incubation period. After that, the plate was incubated at 37 °C for 4 h. […] On an ELISA reader, the absorbance at 570 nm was read (StatFax-2100, Awareness Technology, Inc., USA). The percentage of cells inhibited was calculated using: % CellInhibition=100−T−T0/C−T0 where T is the optical density of the test sample, To is the optical density at time zero, and C is the optical density of the control.

[7] = MTT cytotoxicity assay, normal cells; type: cell-based
[8] = system: S. aureus; test: Antibacterial MIC/MBC, S. aureus; type: cell-based; conditions: Gram-positive
Experimental: (§4) Several studies have shown that organic compound coordination with a metallic element results in significant changes in the biological activity of both the organic ligand and the metal. As a result, BPA and its nickel complex NiBPA were tested in vitro for antibacterial activity against Gram-positive (S. aureus and S epidermidis) and Gram-negative (P. mirabilis and E. coli) bacteria. Figure 10 depicts the antibacterial function of BPA and NiBPA as the diameter of the growth-inhibition region in millimeters. […] The MBC is identified by determining the lowest concentration of antibacterial agents that reduces the viability of the initial bacterial inoculum by 99.9%. The MIC or MBC strain was chosen based on the value agreed upon on two or more occasions. The antibiotic tobramycin (TOB) was used to control the situation. The inhibition zone, as well as the MIC and MBC data, leads to the following conclusions. […] This is explained by the metal ion’s polarity and cationic charge, as NiBPA has a cationic property with two positive charges. […] The interaction between Gram-negative bacteria and NiBPA was stronger than that of Gram-positive bacteria due to the higher negative charge on the cell surface, despite the presence of an outer membrane in Gram-negative bacteria (see Figure 11).

[9] = system: E. faecalis; test: Antibacterial MIC/MBC, E. faecalis; type: cell-based; parameters: MIC: unit not given here; conditions: Gram-positive
[10] = system: P. aeruginosa; test: Antibacterial MIC/MBC, P. aeruginosa; type: cell-based; parameters: MIC: unit not given here; conditions: Gram-negative
[11] = system: E. coli; test: Antibacterial MIC/MBC, E. coli; type: cell-based; conditions: Gram-negative
Experimental: as §4

[12] = BSA fluorescence, λex 280 nm, room temperature

Row | SMILES | Kbin [1] | n (number of binding sites) [1] | KSV [1] | KSV [1, 12] | Kq [1] | reduction of BSA fluorescence intensity at 343 nm ([1]; λex 280 nm, room temperature) | binding constant (ct-DNA) [3] | Ka1 (k1/k−1) ([4]; BSA, 1st step, 25 °C) | ΔG1 ([4]; BSA, 1st step) | K2 (2nd step) ([4]; BSA, 2nd step, 25 °C) | k−1 (1st step, first-order dissociation constant) ([4]; BSA, 25 °C) | Ka1 (k1/k−1) [5] | Kd [5] | K2 (2nd step) [5] | Ka2 (k2/k−2) [5] | k−2 [5] | k1 (1st step, second-order association constant) [5] | k−1 (1st step, first-order dissociation constant) [5] | Ka (overall binding) [5] | MBC [8] | also measured
1 | c1ccc(CNCc2ccccn2)nc1 [BPA, bis(2-picolyl)amine] | 0.25 10^4 M^−1 | 1.0 | 2100 M⁻¹ | 0.21 10^4 M^−1 | 0.21 10^12 M^−1s^−1 | 40% | 16000 M⁻¹ | 73.5 M⁻¹ | -10.6 kJ/mol | Irreversible step with K2 = 0.82 ± 0.08 M^−1s^−1 | 0.17 ± 0.0 s⁻¹ | 40.0 M⁻¹ and 40 M⁻¹ | 25.6 mM | 0.29 ± 0.01 M⁻¹ s⁻¹ | 47.5 M⁻¹ | 6.1 ± 0.3 10^−3s^−1 | 27.0 ± 2.5 M⁻¹ s⁻¹ | 0.69 ± 0.1 s⁻¹ | 1899 M⁻¹ | 0 µg/mL | Kd [2]: 250 µM; Kd ([4]; BSA, 1st step, 25 °C, read-out: Kd1 (k−1/k1)): 13.6 mM; K2 (irreversible 2nd step) ([4]; BSA, 2nd step): 0.82 M⁻¹; k−2 ([4]; BSA, 2nd step, irreversibility): ≈ 0; kon ([4]; bovine, read-out: k1 (1st step, second-order association constant)): 12.5 ± 1.1 M⁻¹ s⁻¹; IC50 ([6]; Homo sapiens, HepG2, 24 h): 100 ± 1 µg/mL (≈ 502 µM); IC50 ([7]; Homo sapiens, WI-38, 24 h): 237.2 ± 1.3 µg/mL (≈ 1190 µM); MBC [9]: 0 µg/mL; MBC [10]: 0 µg/mL; MBC [11]: 0 µg/mL
2 | O.[Cl][Ni][Cl].c1ccc(CNCc2ccccn2)nc1 [NiBPA, [(BPA)NiCl2(H2O)]] | 0.90 10^4 M^−1 | 1.3 | 7000 M⁻¹ | 0.70 10^4 M^−1 | 0.70 10^12 M^−1s^−1 | 65% | 52000 M⁻¹ | 7.3 M⁻¹ | -5.1 kJ/mol | 2.0 ± 0.2 M⁻¹ s⁻¹ | 7.3 ± 0.3 s⁻¹ | 53.6 M⁻¹ | 19 mM | 0.23 ± 0.01 M⁻¹ s⁻¹ | 39 M⁻¹ and 39.0 M⁻¹ | 5.9 ± 0.5 10^−3s^−1 | 19.3 ± 2.3 M⁻¹ s⁻¹ | 0.36 ± 0.1 s⁻¹ | 2077 M⁻¹ | 76.0 µg/mL | binding constant (BSA) ([2]; BSA UV absorption): 8200 M⁻¹; ΔG2 ([4]; BSA, 2nd step): −8.3 kJmol^−1; k−2 ([4]; BSA, 2nd step, 25 °C): 620 ± 6 10^−3s^−1; Ka2 ([4]; BSA, 2nd step, 25 °C, listed as 1): 3.2 M⁻¹; k1 (1st step, second-order association constant) ([4]; BSA, 25 °C): 53.6 ± 9.0 M⁻¹ s⁻¹; Ka (overall binding) ([4]; BSA, overall): 30.3 M⁻¹; ΔG (overall reaction) ([4]; BSA, overall): −8.4 kJmol^−1; Kd ([4]; BSA, overall, read-out: Kd (overall binding)): 34 mM; Kd ([4]; BSA, overall, read-out: Kd (overall reaction)): 32.3 mM; IC50 ([6]; HepG2, MTT, 24 h): 75.0 ± 0.5 µg/mL; IC50 ([7]; normal liver (Wi38) cells, MTT, 24 h): 120.0 ± 0.5 µg/mL; MBC [9]: 80.0 µg/mL; MIC [9]: 43.0; MBC [10]: 70.0 µg/mL; MIC [10]: 35.0; MBC [11]: 63.0 µg/mL

Source: publication PMC9680484, “Synthesis, Biophysical Interaction of DNA/BSA, Equilibrium and Stopped-Flow Kinetic Studies, and Biological Evaluation of bis(2-Picolyl)amine-Based Nickel(II) Complex” (Biomimetics, 2022)
